From US11344521B2, “Methods for the treatment of leptomeningeal disease” (priority 2017, dated 2022) come the findings set out here.

This data set in a line: Solubility in water. The format is physicochemical.

On to `NC(=O)C(CCC(=O)[O-])NC(=O)Cc1ccccc1.[Na+]` (stereo not shown) [Iso-PG, phenylacetylisoglutaminate sodium], for which the solubility in water result is on record as “soluble in water”.
